From BindingDB's records for patent US9777020 (AbbVie Inc, 2017)
pIC50: −log10 of the molar value.

Biological target: High affinity nerve growth factor receptor (Homo sapiens, UniProt P04629)
Sequence (P04629 whole entry): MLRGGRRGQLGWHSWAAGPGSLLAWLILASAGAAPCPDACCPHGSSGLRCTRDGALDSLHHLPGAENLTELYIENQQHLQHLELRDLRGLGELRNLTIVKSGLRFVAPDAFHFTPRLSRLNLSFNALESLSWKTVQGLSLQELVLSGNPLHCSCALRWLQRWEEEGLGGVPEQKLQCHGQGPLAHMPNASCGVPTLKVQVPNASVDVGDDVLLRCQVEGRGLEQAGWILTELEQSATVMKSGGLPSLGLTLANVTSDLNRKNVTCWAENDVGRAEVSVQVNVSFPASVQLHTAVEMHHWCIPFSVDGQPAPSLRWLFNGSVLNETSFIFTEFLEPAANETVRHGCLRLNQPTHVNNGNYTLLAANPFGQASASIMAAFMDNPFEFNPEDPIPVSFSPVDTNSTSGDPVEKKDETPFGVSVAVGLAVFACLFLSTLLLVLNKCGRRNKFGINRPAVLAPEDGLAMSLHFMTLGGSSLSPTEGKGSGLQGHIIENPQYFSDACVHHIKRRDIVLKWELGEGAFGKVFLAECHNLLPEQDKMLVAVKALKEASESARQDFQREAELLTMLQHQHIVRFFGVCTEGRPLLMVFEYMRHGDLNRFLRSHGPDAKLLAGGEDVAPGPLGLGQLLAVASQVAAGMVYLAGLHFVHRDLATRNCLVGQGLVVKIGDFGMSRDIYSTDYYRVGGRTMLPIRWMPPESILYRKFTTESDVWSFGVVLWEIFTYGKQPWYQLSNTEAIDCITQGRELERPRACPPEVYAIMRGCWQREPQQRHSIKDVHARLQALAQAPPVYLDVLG

Compound: CCOc1nc(N2CCOCC2)ccc1NC(=O)c1coc2c1C(=O)NCC2 [US9777020, Example 106]
- pIC50: 7.54

Compound: Cc1nc2ccc(NC(=O)c3coc4c3C(=O)NCC4)cc2s1 [US9777020, Example 15]
- pIC50: 7.16
